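Five concentrations, 48 hours, 96-well plates. TGI: total growth inhibition.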
Legend:
Experiment in all cases: NCI tumour cell line growth inhibition, 48 h
M14 melanoma = tested on: M14 melanoma
U251 CNS = tested on: U251 CNS
OVCAR-8 ovarian = tested on: OVCAR-8 ovarian
SN12C renal = tested on: SN12C renal
HCT-15 colon = tested on: HCT-15 colon
EKVX NSCLC = tested on: EKVX NSCLC
MALME-3M melanoma = tested on: MALME-3M melanoma
TK-10 renal = tested on: TK-10 renal
SK-MEL-2 melanoma = tested on: SK-MEL-2 melanoma
HS 578T breast = tested on: HS 578T breast
NCI/ADR-RES ovarian = tested on: NCI/ADR-RES ovarian
MDA-MB-231 breast = tested on: MDA-MB-231 breast

SMILES	TGI (M14 melanoma)	TGI (U251 CNS)	TGI (OVCAR-8 ovarian)	TGI (SN12C renal)	TGI (HCT-15 colon)	TGI (EKVX NSCLC)	TGI (MALME-3M melanoma)	TGI (TK-10 renal)	TGI (SK-MEL-2 melanoma)	TGI (HS 578T breast)	TGI (NCI/ADR-RES ovarian)	TGI (MDA-MB-231 breast)
S=c1ncc2c([nH]1)C1c3ccccc3C2c2ccccc21	> 100 µM	> 100 µM	> 100 µM	> 100 µM	> 100 µM	> 100 µM	> 100 µM	> 100 µM	> 100 µM			
O=Cc1cc(C(=O)OCc2ccccc2)n(S(=O)(=O)c2ccccc2)c1	36.2 µM		> 100 µM	66.1 µM	50.7 µM	94.4 µM	> 100 µM	69.6 µM	39.6 µM	49.2 µM	98.6 µM	78.1 µM
O=C1O[C@H]2[C@H](OC(=O)c3cc(O)c(O)c(O)c3)[C@@H](OC(=O)c3cc(O)c(O)c4c3[C@@H]3C1=CC(=O)C(O)(O)C3(O)O4)[C@H](OC(=O)c1cc(O)c(O)c(O)c1)O[C@@H]2COC(=O)c1cc(O)c(O)c(O)c1 (some centres undefined)	> 100 µM	> 100 µM	> 100 µM	> 100 µM	> 100 µM	> 100 µM	> 100 µM		> 100 µM	> 100 µM	> 100 µM	> 100 µM
Nc1nc(NCCCO)cc(=O)[nH]1	> 100 µM	> 100 µM	> 100 µM	> 100 µM	> 100 µM	> 100 µM	> 100 µM		> 100 µM	> 100 µM	> 100 µM	> 100 µM
CC(=O)NC(NCCN)(c1ccccc1)c1ccccc1	> 100 µM	> 100 µM	> 100 µM	> 100 µM	> 100 µM	> 100 µM	> 100 µM	> 100 µM		> 100 µM	> 100 µM	> 100 µM
CCOC(=O)c1c(NC(=S)Nc2ccc(Cl)cc2)sc2c1CCN(C)C2	> 100 µM		> 100 µM	> 100 µM	> 100 µM	> 100 µM		> 100 µM	> 100 µM	> 100 µM	> 100 µM	> 100 µM
COc1c(C(=O)NCCN(CCNC(=O)c2cccc(-c3cccc(C(=O)N(C)C)c3OC)c2OC)CCNC(=O)c2cccc(-c3cccc(C(=O)N(C)C)c3OC)c2OC)cccc1-c1cccc(C(=O)N(C)C)c1OC	> 100 µM	> 100 µM	> 100 µM	> 100 µM	> 100 µM	> 100 µM	39.6 µM			87.3 µM	> 100 µM	81.2 µM
COC(=O)/C=C1/OC(c2ccccc2)=C(C)C1=O	24.4 µM	27.1 µM	81.6 µM		17 µM	32 µM	26.7 µM	29.1 µM		83.9 µM	65.5 µM	15.7 µM
CC(=O)OCC1OC(n2c3c(c(-c4ccc(Cl)cc4)c(C#N)c2=S)CCCC3)C(OC(C)=O)C(OC(C)=O)C1OC(C)=O (centres undefined)	> 100 µM	> 100 µM	> 100 µM	> 100 µM	> 100 µM		> 100 µM	> 100 µM	63.3 µM		> 100 µM	> 100 µM
CCOC(=O)c1nc2cc(C(F)(F)F)ccc2nc1Nc1ccc(C(=O)OC)s1	> 100 µM	> 100 µM	> 100 µM		> 100 µM	> 100 µM	> 100 µM	> 100 µM	43.5 µM	> 100 µM	> 100 µM	94.6 µM
Cc1cc2nc3ccccc3n2c2nc(N)ccc12	> 100 µM		80.4 µM	> 100 µM	93.1 µM	> 100 µM		> 100 µM	> 100 µM	> 100 µM	> 100 µM	> 100 µM
CCCCCc1c(CCCC)c(=O)[nH]c2nc(NC(=O)CCCC)ccc12	> 100 µM	> 100 µM	> 100 µM	> 100 µM	> 100 µM	> 100 µM	> 100 µM	> 100 µM	> 100 µM		> 100 µM	> 100 µM
O=C(c1ccccc1)N1CCC(CC2(c3cc4ccccc4[nH]3)OCCO2)CC1	39.6 µM	> 100 µM	> 100 µM	> 100 µM	> 100 µM	> 100 µM		> 100 µM	73.6 µM		> 100 µM	> 100 µM
COc1ccc(-c2c3c(n(C4OC(CO)C(O)C(O)C4O)c(=S)c2C#N)CCCC3)cc1 (centres undefined)	> 100 µM		> 100 µM	> 100 µM	> 100 µM	> 100 µM	> 100 µM	> 100 µM	> 100 µM	> 100 µM	> 100 µM	> 100 µM
COc1cccc(C2SC(N)=Nc3c2c(C)nn3C(=O)Cc2ccccc2)c1 (centres undefined)	> 100 µM		> 100 µM	> 100 µM	> 100 µM	> 100 µM	> 100 µM	> 100 µM		> 100 µM		> 100 µM
C=C1C(=O)O[C@H]2C1C[C@@H](OC(C)=O)/C(C)=C/CC[C@@]1(C)O[C@H]21 (some centres undefined)	16.1 µM	> 100 µM	32.5 µM	29.2 µM	22.9 µM	35.2 µM	18.7 µM	17.4 µM	57.9 µM	86 µM	32.3 µM	
CC(Nc1ccc(Cl)c(Cl)c1)c1ccncc1 (centres undefined)	68.2 µM	46.2 µM	76.2 µM	> 100 µM	> 100 µM	> 100 µM	> 100 µM	> 100 µM	55.6 µM		> 100 µM	45.1 µM
CCOC(=O)/C(=N/Nc1ccccc1)N1C(=S)C=C(C)NN(C)C1=S	> 100 µM	50.9 µM	> 100 µM	> 100 µM	> 100 µM	> 100 µM		> 100 µM	> 100 µM	> 100 µM	> 100 µM	> 100 µM
O=C1/C(=C/c2ccccc2[N+](=O)[O-])N=C(c2ccccc2)N1c1nc2ccccc2s1	> 100 µM	> 100 µM	39.7 µM	64.3 µM	56.8 µM	> 100 µM		> 100 µM	> 100 µM	62.4 µM	39.5 µM	> 100 µM
NC1CCC(N(CC(=O)O)CC(=O)O)C(N(CC(=O)O)CC(=O)O)C1 (centres undefined)		> 100 µM	> 100 µM	> 100 µM	> 100 µM		> 100 µM	> 100 µM	> 100 µM	> 100 µM	> 100 µM	> 100 µM

— PubChem BioAssay (NCI)
